Entries after “also recorded” stand apart in the source; their conditions may differ.
Columns and labels:
Type in all cases: cell-based, human
NRF2 and GPX4 = NRF2 and GPX4 protein levels (western blotting); details: for GPX4 levels: BRCA1-mutant SUM149 cells
Description: Cell pellets were lysed using immunoprecipitation lysis buffer (Fisher Scientific) or NP-40 buffer containing complete mini protease inhibitors (Roche). Protein concentrations were detected by a Bicinchoninic Acid Protein Assay (Thermo Scientific) using a FLUOstar Omega microplate reader (BMG Labtech). Immunoprecipitation and Western blot analysis were conducted as previously described. The primary antibodies and concentrations used in the current study included the followed: GPX4 (1:1,000, MAB5457, R&D systems), BRCA1 (1:1,000, 14823, Cell Signaling), BRCA2 (1:1,000, MAB2476-SP, R&D Systems), DHODH (1:1,000, 14877-1-AP, Proteintech), ACSL4 (1:1,000, sc-271800, Santa Cruz), FSP1 (1:1,000, 20886-1-AP, Proteintech), VDAC1 (1:1,000, 66345-1-Ig, Proteintech), VDAC2 (1:1,000, 66388-1-Ig, Proteintech), VDAC3 (1:1,000, 55260-1-AP, Proteintech), SLC7A11 (1:1,000, 12691, Cell Signaling), NCOA4 (1:1,000, 66849, Cell Signaling), vinculin (1:10000; […], Sigma), β-actin (1:1,000, 3700, Cell Signaling), LC3B (1:5000, 3868, Cell Signaling), 53BP1 (1:5000, NB100-304, Novus Biologicals), E-Cadherin (1:1000, 3195, Cell Signaling), and tubulin (1:5000, 2144, Cell Signaling).

[1] = system: WT, BRCA1- or VDAC3-deficient cells; test: Rescue of Erastin-induced ferroptosis by antioxidants (cell viability); details: for effect on Erastin-induced ferroptosis: wild-type (WT), BRCA1- or VDAC3-deficient cells
Description: (§1) Viable cells were measured using Cell Counting Kit-8 (CCK-8, Dojindo) as previously described. Briefly, cells were seeded onto 96-well plates and subsequently treated with indicated agents. Next, cells were exposed to 10 μL of CCK-8 reagent (100 μL of medium per well) for 1 hour at 37° C. with 5% CO2 in an incubator. The absorbance at a wavelength of 450 nm was determined using a FLUOstar Omega microplate reader (BMG Labtech). The combination effects were assessed with Bliss independence model and the score is defined as “observed combination effect” minus “expected additive effect”.

[2] = system: BRCA1 sgRNA-infected (BRCA1 sg) cells; test: FIN-induced lipid peroxidation and ferroptosis in BRCA1 sgRNA-infected cells; details: for effect of BRCA1 deficiency on the lipid peroxidation and ferroptosis induced by the compound: BRCA1 sg cells versus control; for effect on RSL3-induced cell death in BRCA1 sg cells: co-treatment with RSL3
Description: (§2) Knockout of BRCA1, BRCA2, VDAC3, GPX4, ECAD, 53BP1, and NCOA4 in human cell lines was performed using single guide RNAs (sgRNAs) and the CRISPR-Cas9 expression system as previously described. Briefly, sgRNAs were cloned into the lentiviral LentiGuide vector. The sequences of sgRNAs used in the current study are listed in SEQ ID NOs 1-23. LentiGuide clones were transfected into HEK293T cells with a psPAX2 packaging plasmid and pMD2.G-expressing plasmid. Cells were infected with lentivirus with 0.8 μg/mL polybrene and selected with puromycin (1 μg/mL, InvivoGen) or blasticidin (2 μg/mL, InvivoGen), followed by Western blot analysis to confirm target gene deletion. To maintain GPX4 knockout cells, we added 1 μM ferrostatin-1 into the media.
as §1
(§3) Cell death was measured by propidium iodide (Roche) staining using a flow cytometer, as previously described. Briefly, cells were seeded onto 6- or 12-well plates and subsequently treated with indicated agents. For GPX4 knockout cells, ferrostatin-1 was removed from the culture media. Next, cells were collected (including floating dead cells) and stained with 5 μg/mL propidium iodide. The percentage of the propidium iodide-positive dead cells was determined using the flow cytometer BD Accuri C6 (BD Biosciences) or Attune NXT Flow Cytometer (ThermoFisher) with an FL2 detector. A minimum of 5,000 single cells were analyzed per well.
(§4) As previously described C11-BODIPY 581/591 (Invitrogen) was used for lipid peroxidation, MitoPerOx (Abcam) for mitochondrial lipid peroxidation, and CM-H2DCFDA (ThermoFisher) for ROS measurements. Briefly, cells were seeded on 6- or 12-well plates and subsequently treated with indicated agents. After staining with 2.5 μM C11-BODIPY 581/591, 2.5 μM MitoPerOx, or 4 μM CM-H2DCFDA for 20 minutes, cells were analyzed using the flow cytometer BD Accuri C6 (BD Biosciences) or Attune NxT Flow Cytometer (ThermoFisher) with a 488-nm laser on an FL1 detector. A minimum of 5,000 single cells were analyzed per well.

VDAC3-KO cells = test: FIN-induced ferroptosis in VDAC3-KO cells; details: VDAC3 sg cells versus control
Description: as §2
Viable cells were measured using Cell Counting Kit-8 (CCK-8, Dojindo) as previously described. Briefly, cells were seeded onto 96-well plates and subsequently treated with indicated agents. […] The absorbance at a wavelength of 450 nm was determined using a FLUOstar Omega microplate reader (BMG Labtech). The combination effects were assessed with Bliss independence model and the score is defined as “observed combination effect” minus “expected additive effect”.
Cell death was measured by propidium iodide (Roche) staining using a flow cytometer, as previously described. […] The percentage of the propidium iodide-positive dead cells was determined using the flow cytometer BD Accuri C6 (BD Biosciences) or Attune NXT Flow Cytometer (ThermoFisher) with an FL2 detector. A minimum of 5,000 single cells were analyzed per well.
as §4, with “Briefly, cells were seeded on 6- or 12-well plates and subsequently treated with indicated agents.” left out

[3] = system: BRCA1-mutant cancer cells (SUM149, HCC1937); test: PARPi+GPX4i combination-induced lipid peroxidation and cell death; details: for effect on cell death induced by PARP inhibitor+GPX4 inhibitor combination: BRCA1-mutant cells
Description: as §3, §4

[4] = system: BRCA2 sgRNA infected HT1080 cells; test: FIN sensitivity of BRCA2 sgRNA-infected HT1080 cells; details: BRCA2 sg HT1080 versus control
Description: as §2, §1

SUM149 and HS578T cells = test: ROS-related cell death in SUM149 and HS578T cells (cell viability)
Description: as §1

NCOA4 = NCOA4 expression after PARPi treatment (western blotting); details: SUM149 and HCC1937 cells
Description: Cell pellets were lysed using immunoprecipitation lysis buffer (Fisher Scientific) or NP-40 buffer containing complete mini protease inhibitors (Roche). Protein concentrations were detected by a Bicinchoninic Acid Protein Assay (Thermo Scientific) using a FLUOstar Omega microplate reader (BMG Labtech). Immunoprecipitation and Western blot analysis were conducted as previously described. The primary antibodies and concentrations used in the current study included the followed: GPX4 (1:1,000, MAB5457, R&D systems), BRCA1 (1:1,000, 14823, Cell Signaling), BRCA2 (1:1,000, MAB2476-SP, R&D Systems), DHODH (1:1,000, 14877-1-AP, Proteintech), ACSL4 (1:1,000, sc-271800, Santa Cruz), FSP1 (1:1,000, 20886-1-AP, Proteintech), VDAC1 (1:1,000, 66345-1-Ig, Proteintech), VDAC2 (1:1,000, 66388-1-Ig, Proteintech), VDAC3 (1:1,000, 55260-1-AP, Proteintech), SLC7A11 (1:1,000, 12691, Cell Signaling), NCOA4 (1:1,000, 66849, Cell Signaling), vinculin (1:10000; V4505, Sigma), β-actin (1:1,000, 3700, Cell Signaling), LC3B (1:5000, 3868, Cell Signaling), 53BP1 (1:5000, NB100-304, Novus Biologicals), E-Cadherin (1:1000, 3195, Cell Signaling), and tubulin (1:5000, 2144, Cell Signaling).

[5] = BRCA1 sgRNA infected SKOV3 cells

C[S+]([O-])CCCCN=C=S (centres unmarked) [sulforaphane]
GPX4 levels (NRF2 and GPX4): increased GPX4 levels

CC1(C)CCCC(C)(C)N1[O] [TEMPO]
effect on Erastin-induced ferroptosis [1]: completely suppressed

O=C(O)c1cc(/N=N/c2ccc(S(=O)(=O)Nc3ccccn3)cc2)ccc1O [sulfasalazine]
effect of BRCA1 deficiency on the lipid peroxidation and ferroptosis induced by the compound [2]: did not affect | effect of VDAC3 deletion on the lipid peroxidation, ferroptosis or sensitivity induced by the compound (VDAC3-KO cells): did not affect

CC(C)(C)c1cc(O)ccc1O [tert-butylhydroquinone]
effect on RSL3-induced ferroptosis [2, 5]: rendered these cells resistant to RSL3-induced ferroptosis | GPX4 levels (NRF2 and GPX4): increased GPX4 levels | NRF2 and GPX4 levels (NRF2 and GPX4; [5]): induced both NRF2 and GPX4 levels | effect on ferroptosis induced by olaparib+RSL3 combination ([3]; SUM149 cells): suppressed

CCOC(=O)c1ccc(NC2CCCCC2)c(N)c1 [ferrostatin-1]
effect on RSL3-induced cell death in BRCA1 sg cells [2]: abolished | effect on Erastin-induced ferroptosis [1]: completely suppressed | effect on cell death induced by PARP inhibitor+GPX4 inhibitor combination [3]: largely abolished

CC(C)Oc1ccc(C(=O)Cn2ccnc2)cc1-n1c(CN2CCN(C(=O)COc3ccc(Cl)cc3)CC2)nc2ccccc2c1=O [IKE, imidazole ketone erastin]
effect of BRCA1 deficiency on the lipid peroxidation and ferroptosis induced by the compound [2]: remarkably repressed | effect of VDAC3 deletion on the lipid peroxidation, ferroptosis or sensitivity induced by the compound (VDAC3-KO cells): largely abolished | effect of BRCA2 depletion on cellular sensitivity to the compound [4]: did not affect

CC(=O)N[C@@H](CS)C(=O)O [NAC, N-acetyl-1-cysteine]
effect on PARP inhibitor-induced cell killing (SUM149 and HS578T cells; BRCA1-deficient SUM149 cells): partially restored; also recorded: suppressed | effect on PARP inhibitor-induced NRF2 and GPX4 induction (NRF2 and GPX4; BRCA1-WT HS578T cells): abolished

Z-VAD
effect on RSL3-induced cell death in BRCA1 sg cells [2]: not | effect on cell death induced by PARP inhibitor+GPX4 inhibitor combination [3]: not

CN1C(=O)NC(Cc2c[nH]c3c(Cl)cccc23)C1=O (centres unmarked) [Nec-1s]
effect on cell death induced by PARP inhibitor+GPX4 inhibitor combination [3]: not

NC(=O)c1cccc2cn(-c3ccc([C@@H]4CCCNC4)cc3)nc12 [niraparib]
NCOA4 expression (NCOA4): significantly induced

CC(C)(C)OO [TBH, tert-butyl hydroperoxide]
cell death in BRCA1-deficient versus BRCA1-proficient cells (SUM149 and HS578T cells; SUM149 or BRCA1 sg HS578T cells compared with HS578T cells): induced more cell death

CC1(C)CC(NC(=O)C[P+](c2ccccc2)(c2ccccc2)c2ccccc2)CC(C)(C)N1[O] [MitoTEMPO]
effect on cell viability of Erastin-treated cells ([1]; BRCA1- or VDAC3-deficient counterparts): did not provide a protective effect | effect on cell viability of Erastin-treated cells ([1]; WT cells): largely restored cell viability

Source: patent publication US20260130924A1, “COMPOSITIONS AND METHODS OF TREATING SUBJECTS WITH BRCA1 MUTATION OR DEFICIENCY” (BOARD OF REGENTS, THE UNIVERSITY OF TEXAS SYSTEM, priority 2022, published 2026)
